Experimental data taken from patent US8575163B2, “Pyrrolopyridinylpyrimidin-2-ylamine derivatives” (Merck Patent GmbH, priority 2009, dated 2013).

Legend:
PDK1 = molecular target: T1, PDK1 (Homo sapiens, UniProt O15530); assay: Test for the inhibition of PDK1 (flashplate, 33P-ATP); format: biochemical; conditions: His6-PDK1 3.4 nM, 4 μM ATP, 30° C., 60 min
T1 construct: His6 (N)
T1 sequence (O15530 51-556 limits assumed): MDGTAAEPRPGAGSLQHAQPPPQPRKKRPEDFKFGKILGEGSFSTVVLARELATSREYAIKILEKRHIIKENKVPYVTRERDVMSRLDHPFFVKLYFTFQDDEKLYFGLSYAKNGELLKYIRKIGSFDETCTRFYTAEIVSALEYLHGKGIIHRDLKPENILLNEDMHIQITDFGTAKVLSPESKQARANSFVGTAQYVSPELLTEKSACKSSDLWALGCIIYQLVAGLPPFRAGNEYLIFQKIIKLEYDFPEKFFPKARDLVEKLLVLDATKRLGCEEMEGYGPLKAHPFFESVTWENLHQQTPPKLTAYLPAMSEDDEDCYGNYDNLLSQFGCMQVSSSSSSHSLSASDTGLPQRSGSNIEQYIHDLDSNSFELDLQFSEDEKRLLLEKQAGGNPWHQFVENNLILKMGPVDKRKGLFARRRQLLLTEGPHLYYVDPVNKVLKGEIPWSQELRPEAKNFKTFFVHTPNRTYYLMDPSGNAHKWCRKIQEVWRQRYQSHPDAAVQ
Procedure, shortened: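 His6-PDK1(1-50) (3.4 nM) and a biotinylated peptide substrate (400 nM) were incubated 60 min at 30° C with 4 μM ATP containing ^33P-ATP and test compound. Incorporated radioactivity was counted after subtracting a 100 nM staurosporine blank and expressed as % of control; IC50 derived from these.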

[1] = test system: PDK1 kinase activity (phospho-T308-PKB) in PC3 cells; assay: Cellular testing of PDK1 kinase inhibitors in PC3 cells (Luminex, phospho-T308-PKB); format: cell-based; conditions: Homo sapiens, PC-3, 0.5 h, 30 min incubation, serum-free, read-out: IC50 PC3 cells [P-PKB T308]
Experimental: Method for the Cellular Testing of PDK1 Kinase Inhibitors in PC3 Cells.
The cellular assay for the determination of the PDK1 kinase activity is carried out as a Luminex assay in the 96-well format. PC3 cells are shown at 20,000 cells per well in 100 μl of medium (45% of […]/45% of Ham's F12/10% of FCS) and incubated on the following day for 30 min with a serial dilution of the test substance (7 concentrations) under serum-free conditions. The cells are subsequently lysed using 90 μl of lysis buffer (20 mM tris/HCl pH 8.0, 150 mM NaCl, 1% of NP40, 10% of glycerol, 1% of phosphatase inhibitor I, 1% of phosphatase inhibitor II, 0.1% of protease inhibitor cocktail III, 0.01% of benzonase) per well, and the lysates are separated off from insoluble cell constituents by means of centrifugation through a 96-well filter plate (0.65 μm). The lysates are incubated overnight at 4° C. with shaking with Luminex beads to which an anti-total PKB antibody is coupled. The detection is carried out on the following day by addition of a phospho-T308-PKB antibody and a species-specific peroxidase-labelled secondary antibody. The detection of phospho-T308-PKB is carried out by measurement in a Luminex100 instrument by determination of 100 events per cavity in a measurement time of 60 sec. As pharmacological blank, the signals obtained from cells which have been treated with 10 μM staurosporin are subtracted from all other batches. The control value used for maximum phosphorylation of PKB on T308 are the signals from cells which have only been treated with the solvent (0.3% of DMSO). The values of the batches treated with test substance are calculated therefrom as percentage of control, and IC50 values are determined by means of RS1.

Row | Compound | IC50 (PDK1) [µM] | IC50 [1] [µM]
1 | CCC[C@](O)(c1ccncc1)c1cc(-c2c[nH]c3ncc(-c4cnn(C)c4)cc23)nc(N)n1 (single isomer, unassigned) [A133] | 0.048 | 1.9
2 | CCCC(O)(c1cccc(F)c1)c1cc(-c2c[nH]c3ncc(-c4cnn(C)c4)cc23)nc(N)n1 (centres unmarked) [A116, 1-{2-amino-6-[5-(1-methyl-1H-pyrazol-4-yl)-1H-pyrrolo[2,3-b]pyridin-3-yl]-pyrimidin-4-yl}-1-(3-fluorophenyl)butan-1-ol] | 0.044 | 0.28
3 | CCCC(OCOC)(c1cccc(F)c1)c1cc(-c2c[nH]c3ncc(-c4cnn(C)c4)cc23)nc(N)n1 (centres unmarked) [A117, 4-[1-(3-fluorophenyl)-1-methoxymethoxybutyl]-6-[5-(1-methyl-1H-pyrazol-4-yl)-1H-pyrrolo[2,3-b]pyridin-3-yl]pyrimidin-2-ylamine] | 0.45 | 0.98

Now those with a lower IC50 (PDK1), led by results:

Row | IC50 (PDK1) [µM] | IC50 [1] [µM] | Compound
4 | 0.026 | 0.0051 | Cn1cc(-c2cnc3[nH]cc(-c4cc(C(C)(O)c5cccc(F)c5)nc(N)n4)c3c2F)cn1 (centres unmarked) [A106, 1-{2-amino-6-[4-fluoro-5-(1-methyl-1H-pyrazol-4-yl)-1H-pyrrolo-[2,3-b]pyridin-3-yl]pyrimidin-4-yl}-1-(3-fluorophenyl)ethanol]
5 | 0.0069 | 0.034 | CC[C@](O)(c1ccccc1)c1cc(-c2c[nH]c3ncc(-c4cnn(CC(=O)N5CCCCC5)c4)cc23)nc(N)n1 (single isomer, unassigned) [A135]
6 | 0.0034 | 0.98 | Cn1cc(-c2cnc3[nH]cc(-c4cc(C(C)(O)c5ccncc5)nc(N)n4)c3c2)cn1 (single isomer, unassigned) [A41, 1-{2-amino-6-[5-(1-methyl-1H-pyrazol-4-yl)-1H-pyrrolo[2,3-b]pyridin-3-yl]-pyrimidin-4-yl}-1-pyridin-4-ylethanol]
7 | 0.0019 | 0.692 | CCC(O)(c1ccncc1)c1cc(-c2c[nH]c3ncc(-c4cn[nH]c4)cc23)nc(N)n1 (centres unmarked) [A53, 1-{2-amino-6-[5-(1H-pyrazol-4-yl)-1H-pyrrolo[2,3-b]pyridin-3-yl]pyrimidin-4-yl}-1-pyridin-4-ylpropan-1-ol]
